Data published in PubChem BioAssay (NCI).
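Briefly, cells in 96-well plates were exposed to five compound concentrations for 48 h, and endpoints were estimated by linear interpolation. GI50: concentration for 50% inhibition of growth. The concentration for full growth arrest is given as TGI.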

What was measured:
Assay in all cases: NCI anticancer screen, dose series, 48 h
COLO 205 colon = system: COLO 205 colon
A549 NSCLC = system: A549 NSCLC
DU-145 prostate = system: DU-145 prostate
ACHN renal = system: ACHN renal
HOP-92 NSCLC = system: HOP-92 NSCLC
BT-549 breast = system: BT-549 breast
HT29 colon = system: HT29 colon
HCT-116 colon = system: HCT-116 colon
SN12C renal = system: SN12C renal
MCF7 breast = system: MCF7 breast

SMILES | GI50 (COLO 205 colon) | TGI (COLO 205 colon) | GI50 (A549 NSCLC) | TGI (A549 NSCLC) | GI50 (DU-145 prostate) | TGI (DU-145 prostate) | GI50 (ACHN renal) | TGI (ACHN renal) | GI50 (HOP-92 NSCLC) | TGI (HOP-92 NSCLC) | GI50 (BT-549 breast) | TGI (BT-549 breast) | GI50 (HT29 colon) | TGI (HT29 colon) | GI50 (HCT-116 colon) | TGI (HCT-116 colon) | GI50 (SN12C renal) | TGI (SN12C renal) | GI50 (MCF7 breast) | TGI (MCF7 breast)
Cn1nc(-c2ccc(Cl)cc2)nc2c(=O)n(C)c(=O)nc1-2 | 0.491 µM | 1.93 µM | 0.768 µM | 1.73 µM | 0.89 µM | 1.63 µM | 1.13 µM | 3.1 µM | 1.72 µM | 4.99 µM | 0.968 µM | 1.94 µM | 1.11 µM | 11.3 µM | 0.32 µM | 1.44 µM | 0.706 µM | 1.45 µM | 0.594 µM | 1.57 µM
CCN1C(=O)CCCc2c1ccc(Nc1ncc(Cl)c(NC3[C@@H](C(N)=O)[C@@H]4C=C[C@H]3C4)n1)c2OC (some centres undefined) | 0.633 µM | 2.48 µM | 0.741 µM | 5.88 µM | 1.81 µM | 14.6 µM | 2.07 µM | > 30.2 µM | 0.276 µM | 2.26 µM | 3.61 µM | 17.4 µM | 0.791 µM | 9.06 µM | 0.805 µM | 7.43 µM | 2.53 µM | 57.8 µM | 0.618 µM | 6.7 µM
ON(Cc1ccccc1)C(=S)c1ccccc1 |  | > 93.8 µM |  | > 100 µM |  | > 100 µM |  | 62.1 µM |  | > 100 µM |  | > 100 µM |  | > 100 µM |  | 51.6 µM |  | > 100 µM |  | > 100 µM
N[C@@H]1C(=O)N2C(C(=O)OC(c3ccccc3)c3ccccc3)=C(CCl)CS[C@H]12 | 40.3 µM | > 100 µM | > 67.5 µM | > 100 µM | 15 µM | > 100 µM | 40.2 µM | > 100 µM | 38.3 µM | > 71.4 µM | 25.4 µM | 62.8 µM | 30.2 µM | > 94 µM | 27.1 µM | > 76.6 µM | 41 µM | > 100 µM | 33.6 µM | > 100 µM
NC1=NC(c2ccc(Cl)cc2)N(c2ccc(S(N)(=O)=O)cc2)C(N)=N1 (centres undefined) |  | > 100 µM |  | > 100 µM |  | > 100 µM |  | > 100 µM |  | > 100 µM |  | > 100 µM |  | > 100 µM |  | > 100 µM |  | > 100 µM |  | > 100 µM
CC(=O)OC1=CC2=CC[C@H]3[C@@H]4CCC(=O)[C@@]4(C)CC(=O)[C@]3(S)[C@@]2(C)CC1 |  | > 100 µM |  | > 100 µM |  | > 100 µM |  | > 100 µM |  | 62.8 µM |  | > 100 µM |  | > 100 µM |  | 49.3 µM |  | > 100 µM |  | > 100 µM
COc1ccc(C(c2ccc(OCCN(C)C)cc2)c2cc3ccccc3c3ccccc23)cc1 (centres undefined) | 1.77 µM | 3.47 µM | 1.66 µM | 3.06 µM | 1.77 µM | 3.37 µM | 1.7 µM | 3.13 µM | 1.31 µM | 2.64 µM | 1.78 µM | 3.35 µM | 1.6 µM | 3.1 µM | 1.68 µM | 3.14 µM | 1.74 µM | 3.25 µM | 1.81 µM | 3.61 µM
Oc1ccc(-c2nc3ccc4[nH]ncc4c3c3c2CCCC3)c(F)c1 | 2.25 µM | 5.56 µM | 1.17 µM | 6.11 µM | 2.89 µM | 13.2 µM | 2.08 µM | 12.5 µM | 2.07 µM | 9.8 µM | 1.73 µM | 8.87 µM | 2.7 µM | 11.2 µM | 0.739 µM | 11 µM | 2.99 µM | 12.5 µM | 4.91 µM | 20.7 µM
COc1cccc(CSCC(=O)O)c1 |  | > 100 µM |  | > 100 µM |  | > 100 µM |  | > 100 µM |  | > 100 µM |  | > 100 µM |  | > 100 µM |  | > 100 µM |  | > 100 µM |  | > 100 µM
COC(=O)C1OC2(CCCC3CC32)O[C@H]1C(=O)OC (some centres undefined) |  | > 100 µM |  | > 100 µM |  | > 100 µM |  | > 100 µM |  | > 100 µM |  | > 100 µM |  | > 100 µM |  | > 100 µM |  | > 100 µM |  | > 100 µM
COc1cccc(-c2nn(-c3ccccc3)cc2-c2ccnc(NCCNC(=O)Nc3cccc(C(F)(F)F)c3)c2)c1 | 1.88 µM | 3.78 µM | 3.38 µM | 11.5 µM | 4.16 µM | 14.9 µM | 2.91 µM | 10.4 µM | 1.46 µM | 3.28 µM | 3.4 µM | 13.1 µM | 1.68 µM | 3.47 µM | 2.88 µM | 11.8 µM | 1.95 µM | 4.06 µM | 2.07 µM | 4.89 µM
S=c1[nH]nc(Cc2ccccc2)c(=S)[nH]1 |  | > 100 µM |  | > 100 µM |  | > 100 µM |  |  |  | > 73.1 µM |  | 96.9 µM |  | > 100 µM |  | > 100 µM |  | > 100 µM |  | > 100 µM
